According to patent US20210198647A1, “Enhancers of Neurolysin Activity” (Texas Tech University System, priority 2018, published 2021):
“And” between values parts separate entries of the source, which are not always exact repeats. Identical values can stand only once. Like-named read-outs stand apart in the source and are kept apart here.

Assays:
[1] = biological target: T1, angiotensin converting enzyme (ACE) (Homo sapiens, UniProt P12821); assay: Peptidase selectivity: quenched fluorescent substrate hydrolysis by ACE; format: biochemical; conditions: concentration-response up to 300 μM
T1 construct: purchased R & D systems 929-ZN
T1 sequence (P12821 30-1306): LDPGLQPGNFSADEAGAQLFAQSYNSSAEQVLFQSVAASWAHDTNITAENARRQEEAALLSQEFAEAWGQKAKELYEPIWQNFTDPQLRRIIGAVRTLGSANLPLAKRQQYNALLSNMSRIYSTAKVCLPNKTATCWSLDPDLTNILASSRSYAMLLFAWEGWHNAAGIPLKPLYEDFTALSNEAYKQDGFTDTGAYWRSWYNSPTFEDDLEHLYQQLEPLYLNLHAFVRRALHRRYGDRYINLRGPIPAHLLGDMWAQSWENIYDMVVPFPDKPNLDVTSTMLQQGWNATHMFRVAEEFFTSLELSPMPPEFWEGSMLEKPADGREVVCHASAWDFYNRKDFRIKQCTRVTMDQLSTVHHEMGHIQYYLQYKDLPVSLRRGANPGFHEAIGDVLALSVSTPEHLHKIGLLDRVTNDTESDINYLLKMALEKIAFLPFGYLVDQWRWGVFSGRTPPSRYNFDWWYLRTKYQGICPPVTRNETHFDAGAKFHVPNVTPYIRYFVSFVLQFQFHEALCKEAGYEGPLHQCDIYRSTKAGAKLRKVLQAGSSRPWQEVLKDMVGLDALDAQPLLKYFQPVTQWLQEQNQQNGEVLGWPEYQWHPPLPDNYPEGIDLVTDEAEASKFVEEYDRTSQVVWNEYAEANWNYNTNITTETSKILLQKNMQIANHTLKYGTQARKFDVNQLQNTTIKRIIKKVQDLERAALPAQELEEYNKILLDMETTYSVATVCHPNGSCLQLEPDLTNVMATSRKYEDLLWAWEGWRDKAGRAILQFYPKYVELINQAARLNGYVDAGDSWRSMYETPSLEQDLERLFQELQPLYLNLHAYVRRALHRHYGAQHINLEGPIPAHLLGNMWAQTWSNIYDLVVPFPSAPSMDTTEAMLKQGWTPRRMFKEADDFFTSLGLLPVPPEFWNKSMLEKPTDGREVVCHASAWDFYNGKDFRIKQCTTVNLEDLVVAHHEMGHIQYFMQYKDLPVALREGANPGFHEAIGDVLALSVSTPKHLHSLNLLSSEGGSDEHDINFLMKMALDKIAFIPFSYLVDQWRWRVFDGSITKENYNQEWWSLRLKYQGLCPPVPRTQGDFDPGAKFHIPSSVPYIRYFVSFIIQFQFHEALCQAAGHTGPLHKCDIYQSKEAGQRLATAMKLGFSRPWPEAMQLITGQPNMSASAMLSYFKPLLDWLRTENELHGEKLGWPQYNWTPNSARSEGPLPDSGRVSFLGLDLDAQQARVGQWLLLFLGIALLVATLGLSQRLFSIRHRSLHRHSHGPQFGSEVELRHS

[2] = biological target: T2, angiotensin converting enzyme 2 (ACE2) (Homo sapiens, UniProt Q9BYF1); assay: Peptidase selectivity: quenched fluorescent substrate hydrolysis by ACE2; format: biochemical; conditions: concentration-response up to 300 μM
T2 construct: purchased R & D systems 933-ZN
T2 sequence (Q9BYF1 18-805): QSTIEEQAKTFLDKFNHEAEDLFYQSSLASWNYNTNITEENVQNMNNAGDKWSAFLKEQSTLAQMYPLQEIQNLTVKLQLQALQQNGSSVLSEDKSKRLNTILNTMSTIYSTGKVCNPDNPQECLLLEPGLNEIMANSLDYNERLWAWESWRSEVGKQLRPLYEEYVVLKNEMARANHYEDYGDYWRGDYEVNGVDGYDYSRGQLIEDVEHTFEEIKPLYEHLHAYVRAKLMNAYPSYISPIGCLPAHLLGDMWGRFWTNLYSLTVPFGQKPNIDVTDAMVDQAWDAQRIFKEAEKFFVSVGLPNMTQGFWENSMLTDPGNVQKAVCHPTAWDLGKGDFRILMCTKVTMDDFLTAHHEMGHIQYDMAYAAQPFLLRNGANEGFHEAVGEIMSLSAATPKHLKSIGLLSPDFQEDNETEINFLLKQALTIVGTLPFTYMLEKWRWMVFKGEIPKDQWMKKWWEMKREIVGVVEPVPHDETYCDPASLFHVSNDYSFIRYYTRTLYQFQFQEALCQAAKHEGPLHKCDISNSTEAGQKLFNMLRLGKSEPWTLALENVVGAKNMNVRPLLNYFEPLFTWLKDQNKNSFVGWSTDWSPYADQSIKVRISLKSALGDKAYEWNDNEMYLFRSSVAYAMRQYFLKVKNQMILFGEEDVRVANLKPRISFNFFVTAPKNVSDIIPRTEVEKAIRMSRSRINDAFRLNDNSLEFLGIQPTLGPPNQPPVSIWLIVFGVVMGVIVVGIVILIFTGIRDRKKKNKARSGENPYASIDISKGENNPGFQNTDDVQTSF

Neurolysin (Nln) = biological target: T3, Neurolysin (Nln) (Rattus norvegicus, UniProt P42676); assay: Nln activation in isolated enzyme assay (A50, Amax); format: biochemical; conditions: 95% CI in parentheses; for Amax (maximum % activation achieved): 100% = normal enzyme turnover
T3 construct: polyhistidine (N); made in house; host or cells: Escherichia coli (pBAD/His vector), if the rat enzyme of b61 was used
T3 sequence (P42676 38-704): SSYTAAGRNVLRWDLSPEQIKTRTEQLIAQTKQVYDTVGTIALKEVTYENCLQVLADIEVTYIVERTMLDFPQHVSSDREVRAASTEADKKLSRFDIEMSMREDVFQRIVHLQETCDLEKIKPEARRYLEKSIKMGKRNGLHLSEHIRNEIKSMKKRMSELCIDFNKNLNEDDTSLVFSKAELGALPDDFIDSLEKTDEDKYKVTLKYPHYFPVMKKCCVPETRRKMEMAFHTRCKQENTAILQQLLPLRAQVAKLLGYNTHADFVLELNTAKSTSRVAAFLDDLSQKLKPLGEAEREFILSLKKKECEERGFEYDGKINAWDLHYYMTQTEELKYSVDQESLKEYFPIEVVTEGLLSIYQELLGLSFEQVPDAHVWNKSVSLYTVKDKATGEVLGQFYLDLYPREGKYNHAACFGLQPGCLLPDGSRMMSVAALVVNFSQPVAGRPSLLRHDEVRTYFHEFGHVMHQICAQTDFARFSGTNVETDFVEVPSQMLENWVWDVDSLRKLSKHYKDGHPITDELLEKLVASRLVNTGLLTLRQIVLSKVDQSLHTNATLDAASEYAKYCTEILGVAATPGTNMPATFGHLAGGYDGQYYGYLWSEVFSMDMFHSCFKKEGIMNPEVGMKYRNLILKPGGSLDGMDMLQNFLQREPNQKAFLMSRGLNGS

[3] = Plasma and brain protein binding, rapid equilibrium dialysis (RED); format: in vitro ADME, mouse
Experimental: Plasma and Brain Protein Binding: The rapid equilibrium dialysis (RED) plate and single-use inserts with a membrane MWCO of 8 kDa and sealing tapes for 96-well plates were purchased from (Pierce Biotechnology, Thermo Fisher Scientific, Waltham, Mass.). Test compounds were dissolved in dimethyl sulfoxide and then diluted to 10 μg/mL with water for binding studies. The stock solutions (10 μg/mL) were added to mouse brain homogenates or plasma. The final concentration of the compounds for the equilibrium dialysis experiment was 500 ng/mL. The RED device was assembled according to the manufacturer's instructions. A 200 μL aliquot of plasma or brain homogenate spiked with 500 ng/mL of selected compound was added to the sample chamber of insert (donor) and 400 μL of DPBS was added to the buffer chamber of the dialysis membrane (receiver). Then, the base plate was covered with a sealing tape and was incubated at 37° C. on an orbital shaker at 250 rpm for 4 hours to achieve equilibrium. Compounds were evaluated in triplicate for each experiment. At the end of incubation, equal volumes from both donor and receiver chambers were taken and placed in separate microcentrifuge for content analysis using LC-MS/MS.

[4] = test system: co-culture of primary mouse astrocytes and immortalized mouse endothelial cells (bEnd3); assay: In vitro BBB permeability, apical to basolateral transport; format: in vitro ADME; conditions: 10 μg/mL, 37° C.
Experimental: The permeability coefficient (Pe) was calculated from the cleared volume of each compound versus time. Values represent the mean±SD of three measurements.
Mouse primary astrocytes were isolated from the cerebral cortices of one day old pups (CD-1 mice, Charles Rivers Laboratory) following a literature method.^36 After extracting the brain, cortices were separated, minced and placed in Hank's balanced salt solution (HBSS) without calcium and magnesium, supplemented with gentamycin (10 μg/m). […] The cell suspensions were seeded into a T75 flask and the medium was changed every 3 days for 10-14 days or until reaching confluency.
For bEnd3 and astrocyte co-culture, the Transwell filters ([…] pore size, 12-well; Corning, Lowell, Mass.) were used. First, the Transwell filter was inverted and astrocytes at a density of 150,000 cells/filter were seeded onto the abluminal side of the filter and allowed to adhere for 4 hours. Then the Transwell filter was inverted back and the cells were grown for 2 days in astrocyte medium. At the end of 48 hours, bEnd3 cells at a density of 50,000 cells/filter were seeded onto the upper/luminal side of the filter and the co-culture of astrocytes and bEnd3 cells were grown for an additional 8 days. The medium for both compartments were changed every other day according to literature proceedures.^37
The apparent permeability coefficient (Pe, in cm/min) was calculated according to the cleared volume of each time point, as previously described.^38,39
Permeability measurement for each compound was run for 120 minutes. The media was removed and transwells were rinsed and incubated with HBSS buffer at 37° C. for 30 minutes. […] Concentration of compounds was determined by LC-MS/MS. Since the blank Transwell insert itself (without cells) provides resistance to the passage of buffer and compound from the donor to receiver chamber, the permeability of each compound was also measured in a blank insert and the final permeability coefficient results were calculated by considering the permeability of each compound in a blank insert.

in vitro = conditions: mouse, mouse plasma
[5] = In vitro metabolic stability in mouse plasma and brain homogenate; conditions: 10% mouse brain homogenate; 500 ng/mL; 37° C.
[6] = biological target: thimet oligopeptidase (TOP) (Homo sapiens, UniProt P52888); assay: Peptidase selectivity: quenched fluorescent substrate hydrolysis by TOP; conditions: concentration-response up to 300 μM
Sequence of thimet oligopeptidase (TOP) (P52888 whole entry): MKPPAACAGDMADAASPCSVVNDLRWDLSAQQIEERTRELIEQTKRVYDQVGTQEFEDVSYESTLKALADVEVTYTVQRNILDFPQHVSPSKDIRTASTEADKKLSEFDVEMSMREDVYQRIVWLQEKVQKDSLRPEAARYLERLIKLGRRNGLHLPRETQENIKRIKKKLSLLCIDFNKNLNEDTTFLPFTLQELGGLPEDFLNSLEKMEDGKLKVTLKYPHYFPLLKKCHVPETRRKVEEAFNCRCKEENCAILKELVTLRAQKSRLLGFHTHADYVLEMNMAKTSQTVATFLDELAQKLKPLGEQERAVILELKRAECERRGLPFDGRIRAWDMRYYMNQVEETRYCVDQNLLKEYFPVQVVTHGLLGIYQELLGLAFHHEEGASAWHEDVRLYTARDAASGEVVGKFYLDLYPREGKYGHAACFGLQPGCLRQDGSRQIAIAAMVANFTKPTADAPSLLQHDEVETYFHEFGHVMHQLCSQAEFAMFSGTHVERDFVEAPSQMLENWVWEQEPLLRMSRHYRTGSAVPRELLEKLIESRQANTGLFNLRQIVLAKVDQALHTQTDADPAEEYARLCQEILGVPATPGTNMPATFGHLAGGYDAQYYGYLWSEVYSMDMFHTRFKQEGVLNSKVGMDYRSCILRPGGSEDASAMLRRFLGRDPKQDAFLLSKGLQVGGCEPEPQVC
Experimental: Activity of recombinant human TOP was assessed in the same way as for neurolysin, except that the assay was carried out in the presence of 0.1 mM dithiothreitol (37).

Compound	effect on activity of ACE (in words) [1]	effect on activity of ACE2 (in words) [2]	Amax (maximum % activation achieved) (Neurolysin (Nln))	EC50 (Neurolysin (Nln); A50 (concentration required to activate Nln by 50%))	fu in Plasma ([3]; mouse plasma, 500 ng/mL)	permeability coefficient (Pe) [4]	half-life at 500 ng/mL (in vitro)	t1/2 Mouse Brain [5]	effect on activity of TOP (in words) [6]	fraction unbound at 4 h, 500 ng/mL ([3]; mouse brain homogenate, read-out: fu in Brain)	fraction unbound at 4 h, 500 ng/mL ([3]; mouse plasma, read-out: fu in Plasma)
N[C@@H](Cc1c[nH]cn1)C(=O)NCCc1c[nH]c2ccccc12 [Compound 9d, (S)—N-(2-(1H-indol-3-yl)ethyl)-2-amino-3-(1H-imidazol-4-yl)propanamide]	show inhibition of ACE at high concentration	showed inhibition of ACE2 at high concentrations	259 (240.7 to 281) %	6.1 µM	0.63 ± 0.076	1.07±0.12×10^−3 cm/min	> 16.7 h	1.1 h and 1.09 ± 0.07 h	only exhibited inhibition at concentrations approaching 300 μM	–	–
N[C@@H](Cc1c[nH]cn1)C(=O)NCc1cccc2ccccc12 [Compound 10c, (S)-2-amino-3-(1H-imidazol-4-yl)-N-(naphthalen-1-ylmethyl)propanamide]	no inhibition at the maximum concentration tested	no inhibition up to 300 μM	264 (256.3 to 272.6) %	–	–	1.09±0.09×10^−3 cm/min	–	1.33 h and 1.34 ± 0.033 h	No appreciable inhibition	0.052 ± 0.003	0.45 ± 0.013
